{
  "source": "paper PMC6141559",
  "about": "“Human-like smelling of a rose scent using an olfactory receptor nanodisc-based bioelectronic nose” (Scientific Reports, 2018)",
  "target": "T1, human olfactory receptor 1A2 (hOR1A2) (Homo sapiens, UniProt Q9Y585)",
  "T1 construct": "gene OR1A2; hOR1A2 expressed in E. coli, purified and embedded in MSP1E3D1 nanodiscs",
  "T1 sequence (Q9Y585 1-309)": "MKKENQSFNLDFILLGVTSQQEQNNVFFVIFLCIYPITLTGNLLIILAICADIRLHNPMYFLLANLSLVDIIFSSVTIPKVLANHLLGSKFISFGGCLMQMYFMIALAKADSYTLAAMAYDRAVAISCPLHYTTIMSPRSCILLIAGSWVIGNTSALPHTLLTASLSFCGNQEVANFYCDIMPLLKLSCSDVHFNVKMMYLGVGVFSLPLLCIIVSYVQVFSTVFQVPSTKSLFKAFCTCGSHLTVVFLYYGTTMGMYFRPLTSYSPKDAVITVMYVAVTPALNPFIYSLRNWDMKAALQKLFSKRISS",
  "experiment": "nanodisc-functionalized floating-electrode CNT-FET biosensor, equilibrium (association) constant from Hill-Langmuir fit; also HEK-293 luciferase assay (Kd […])",
  "type": "binding",
  "details": "read-out: nanodisc-functionalized floating-electrode CNT-FET biosensor, equilibrium (assoc) (converted)",
  "data": [
    {"smiles": "CC(C)=CCCC(C)CCO", "note": "(stereo not shown) [citronellol]", "values": [
      {"measurement": "Kd", "result": 385, "unit": "nM"}
    ]}
  ]
}
